Assay results reported in article PMC7349874, “High Content Screening Using New U2OS Reporter Cell Models Identifies Harmol Hydrochloride as a Selective and Competitive Antagonist of the Androgen Receptor” (Cells, 2020).

How the values were obtained:
LNCaP cells = experiment: Spheroid growth (CellTiter-Glo), LNCaP; settings: 7 days, 1 nM R1881
Procedure: (§5) Spheroids were generated by seeding prostate cancer cells in non-adherent U-bottom 96-well plates in medium supplemented with 5% of charcoal stripped FBS. VCaP, LNCaP-FGC, DU145, or PC3 cells were seeded in duplicate at a density of 2000, 500, 600, and 600 cells per well, respectively. […] Cell death was first evaluated by the incubation of the spheroids with propidium iodide (1 mg/mL) for 30 min, and quantitation of red fluorescence was performed using a Celigo® imaging cytometer (Nexcelom Bioscience). […] Then, proliferation was assessed following cell lysis with the CellTiter-Glo® Luminescent Cell Viability Assay reagent (Promega, Charbonnière, France), according to the manufacturer protocol. Quantification of the luminescence was performed using a MicroBeta Wallac luminometer (PerkinElmer), and percent growth was calculated relative to DMSO treated cells.
(§6) Spheroids were treated for 7 days, and cell death was evaluated by propidium iodide staining and fluorescence quantification, using the Celigo imaging system. Growth inhibition was then assessed by cell lysis with CellTiter-Glo, and quantification of the luminescence using a MicroBeta Wallac luminometer. Percent growth was calculated relative to dimethyl sulfoxide (DMSO) treated cells (n = 3 ± SEM).

LNCaP spheroids = system: LNCaP spheroids
Procedure: (§1) prostate cancer cells. GAPDH was used as a loading control.
(§2) Spheroids were treated for 7 days with the indicated concentrations of each drug, stained with PI (1 mg/mL) for 30 min and […] was evaluated using the Celigo® imaging system. Results are expressed as mortality ratios as compared to untreated spheroids (set at 1). Each point represent s the m ean ± SEM of 3 […]
(§3) Mortality (ratio/control)
(§4) [Harmol Hydrochloride] (M)

VCaP spheroids = system: VCaP spheroids
Procedure: as §1, §2, §3, §4

[1] = molecular target: T1, mineralocorticoid receptor (MR) (Homo sapiens, UniProt P08235); experiment: Transactivation assay in HG5LN MR cells; format: cell-based; settings: 16 h, 1 nM aldosterone, highest concentrations used (>1 µM)
T1 construct: expressed in transfected cells
T1 sequence (P08235 726-964 limits assumed): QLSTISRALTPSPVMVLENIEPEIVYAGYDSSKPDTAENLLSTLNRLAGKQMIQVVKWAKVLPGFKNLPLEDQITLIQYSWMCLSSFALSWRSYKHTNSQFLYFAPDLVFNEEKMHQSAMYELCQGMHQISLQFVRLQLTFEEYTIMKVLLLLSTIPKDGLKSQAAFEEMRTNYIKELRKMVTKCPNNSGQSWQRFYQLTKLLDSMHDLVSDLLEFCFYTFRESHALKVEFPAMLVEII
Text: HG5LN MR and HG5LN PXR luciferase reporter cell lines were obtained by stable expression of individual ligand binding domains fused to GAL4 DNA binding domain in HG5LN (HeLa GAL4REx5-luciferase) cells, as previously described. HELN PR cells were obtained by stably expressing PR with the ERα DNA binding domain in HELN (HeLa ERE-luciferase) cells and HMLN GR cells were obtained by stable co-transfection of HeLa cells with a plasmid encoding for a glucocorticoid responsive gene (MMTV-Luc-SV-Neo) and a glucocorticoid receptor expressing plasmid, as previously described.
Agonistic activities were evaluated in HMLN GR, HELN PR, HG5LN MR, and HG5LN PXR cells, using dexamethasone 100 nM, R5020 100 nM, aldosterone 100 nM, and SR12813 3 μM as a positive control, respectively. […] RU486 was used as a control antagonist for GR and PR, and spironolactone for MR.
HMLN glucocorticoid receptor (GR), HG5LN mineralocorticoid receptor (MR), HELN progesterone receptor (PR) and HG5LN PXR cells were used to evaluate the antagonistic effect of the tested compounds on (A) the glucocorticoid receptor (GR), (B) the mineralocorticoid receptor (MR), (C) the progesterone receptor (PR) and (D) the agonistic activity towards the pregnane X receptor (PXR). […]

[2] = system: AR target genes TMPRSS2, FKBP5, PSA; experiment: RT-qPCR of AR target genes in LNCaP cells; settings: 3 µM, 24 h, 1 nM R1881
Procedure: (§7) LNCaP and VCaP cells were seeded in 6-well plates (10^6 and 2 × 10^6 cells per well, respectively) and, 48 h later, complete medium was replaced by charcoal-stripped medium with 5% FBS. Cells were then treated for 24 h with the tested compounds, and RNA extraction was performed using the Quick RNA Miniprep kit (Zymo-Research, Irvine, CA, USA), according to the manufacturer’s protocol. Reverse transcription was performed with 0.5 µg total RNA using the SuperScript III reverse transcriptase kit (ThermoFisher, Waltham, MA, USA), according to the manufacturer’s protocol, in a final volume of 20 µL. The levels of genes transcripts were measured by real time PCR using a LightCycler 480 system (Roche Life Science, Penzberg, Germany) in the presence of SYBRGreen (SYBR® Premix Ex Taq^tm) and the following primers: FKBP5, sense 5′-[sequence]-3′; antisense 5′-[sequence]-3′; PSA, sense 5′-[sequence]-3′; antisense 5′-[sequence]-3′; TMPRSS2, sense 5′-[sequence]-3′, antisense 5′-[sequence]-3′; GR, sense 5′-[sequence]-3′, antisense 5′-[sequence]-3′; HPRT, sense 5′-[sequence]-3′; antisense 5′-[sequence]-3′; GAPDH, sense 5′-[sequence]-3′; antisense 5′-[sequence]-3′. Expression levels were evaluated with the ΔΔCt method and were normalized to GAPDH. Results are expressed as mRNA expression, relative to control (untreated cells), and are the mean ± SEM of 3 independent experiments.

GR [3] = experiment: GR expression (RT-qPCR and Western blot) in LNCaP cells; settings: 3 µM, 24 h, 1 nM R1881
Procedure: (§8) LNCaP and VCaP cells were seeded in 6-well plates (10^6 and 2 × 10^6 cells per well, respectively) and, 48 h later, complete medium was replaced by charcoal-stripped medium with 5% FBS. Cells were then treated for 24 h with the tested compounds, and RNA extraction was performed using the Quick RNA Miniprep kit (Zymo-Research, Irvine, CA, USA), according to the manufacturer’s protocol. Reverse transcription was performed with 0.5 µg total RNA using the SuperScript III reverse transcriptase kit (ThermoFisher, Waltham, MA, USA), according to the manufacturer’s protocol, in a final volume of 20 µL. The levels of genes transcripts were measured by real time PCR using a LightCycler 480 system (Roche Life Science, Penzberg, Germany) in the presence of SYBRGreen (SYBR® Premix Ex Taq^tm) and the following primers: FKBP5, sense 5′-[sequence]-3′; antisense 5′-[sequence]-3′; PSA, sense 5′-[sequence]-3′; antisense 5′-[sequence]-3′; TMPRSS2, sense 5′-[sequence]-3′, antisense 5′-[sequence]-3′; GR, sense 5′-[sequence]-3′, antisense 5′-[sequence]-3′; HPRT, sense 5′-[sequence]-3′; antisense 5′-[sequence]-3′; GAPDH, sense 5′-[sequence]-3′; antisense 5′-[sequence]-3′. Expression levels were evaluated with the ΔΔCt method and were normalized to GAPDH. Results are expressed as mRNA expression, relative to control (untreated cells), and are the mean ± SEM of 3 independent experiments. […]

[4] = system: AR target genes TMPRSS2, FKBP5, PSA; experiment: RT-qPCR of AR target genes in VCaP cells; settings: 3 µM, 24 h, 1 nM R1881
Procedure: as §7

VCaP cells = experiment: Spheroid growth (CellTiter-Glo), VCaP; settings: 7 days, 1 nM R1881
Procedure: as §5, §6

GR [5] = experiment: GR expression (RT-qPCR and Western blot) in VCaP cells; settings: 3 µM, 24 h, 1 nM R1881
Procedure: as §8

[6] = set-up: method as in PMID 20398925; settings: cited from earlier work

In the case of `CNC(=O)c1ccc(N2C(=S)N(c3ccc(C#N)c(C(F)(F)F)c3)C(=O)C2(C)C)cc1F` [enzalutamide, reference compound], the “Growth of LNCaP spheroids” value (LNCaP cells) is reported as “could inhibit the growth of VCaP and LNCaP cells, tough to a lesser extent”, the “Cell death (propidium iodide positive cells) versus untreated spheroids” value (LNCaP spheroids) is reported as “did not significantly affect the number of propidium iodide positive cells” and the “Cell death (propidium iodide positive cells) versus untreated spheroids” value (VCaP spheroids) is reported as “did not significantly affect the number of propidium iodide positive cells”. The “Antagonistic activity towards MR” value [1] was “small antagonistic activity”, the “R1881-mediated expression of AR target genes TMPRSS2, FKBP5, PSA” value [2] was “more pronounced for enzalutamide than for harmol hydrochloride” and the “Expression of GR at the mRNA and protein levels” value (GR [3]) was “neither harmol nor enzalutamide treatment could significantly alter the expression of GR”. For the same compound, the “R1881-mediated expression of AR target genes TMPRSS2, FKBP5, PSA” value [4] was “more pronounced for enzalutamide than for harmol hydrochloride”, the “Growth of VCaP spheroids” value (VCaP cells) was “could inhibit the growth” and the “Expression of GR at the mRNA and protein levels” value (GR [5]) was “neither harmol nor enzalutamide treatment could significantly alter the expression of GR”. For the same compound, the “Cmin required to saturate binding to AR” value [6] was 10 to 30 µM.
